Reference: ChEMBL document CHEMBL3244030, “2-Methoxyphenylethanolamines, potential beta-adrenergic blocking agents” (J Med Chem, 1978)
Activity calls are given as the source filed them. The rule behind the calls is not given here.

Columns and labels:
[1] = target: Beta-2 adrenergic receptor (Cavia porcellus, UniProt Q8K4Z4); test: Antagonist activity at beta2 adrenoceptor in guinea pig trachea assessed as inhibition of isoproterenol-induced response after 20 mins; settings: read-out: pA2 (converted)
Beta-2 adrenergic receptor, sequence (Q8K4Z4 whole entry): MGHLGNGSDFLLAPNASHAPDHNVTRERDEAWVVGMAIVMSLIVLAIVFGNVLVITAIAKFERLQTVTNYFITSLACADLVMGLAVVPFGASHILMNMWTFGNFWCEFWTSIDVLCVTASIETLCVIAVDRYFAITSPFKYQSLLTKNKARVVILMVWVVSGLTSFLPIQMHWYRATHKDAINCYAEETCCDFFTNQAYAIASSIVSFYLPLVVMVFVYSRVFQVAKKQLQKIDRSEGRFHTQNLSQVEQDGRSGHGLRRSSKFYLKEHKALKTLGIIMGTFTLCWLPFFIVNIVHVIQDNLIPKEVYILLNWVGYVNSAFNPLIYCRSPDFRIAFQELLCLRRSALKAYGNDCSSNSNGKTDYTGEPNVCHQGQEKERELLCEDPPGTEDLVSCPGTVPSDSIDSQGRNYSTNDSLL

[2] = target: Beta-2 adrenergic receptor (Cavia porcellus) (UniProt Q8K4Z4); test: Intrinsic activity at beta2 adrenoceptor in guinea pig atrium relative to isoproterenol; settings: Cardiac atrium
Beta-2 adrenergic receptor (Cavia porcellus), sequence (Q8K4Z4 whole entry, looked up): as the sequence (Q8K4Z4 whole entry) above

Cavia porcellus = species on record: Cavia porcellus; test: Selectivity ratio for beta1 adrenoceptor in guinea pig atrium over beta2 adrenoceptor in guinea pig trachea; assay type: tissue-based; settings: Cardiac atrium
[3] = target: Beta-1 adrenergic receptor (Cavia porcellus, UniProt B0FL73); test: Antagonist activity at beta1 adrenoceptor in guinea pig atrium assessed as inhibition of isoproterenol-induced response after 20 mins; design: species or system Cardiac atrium; settings: read-out: pA2 (converted)
Beta-1 adrenergic receptor, sequence (B0FL73 whole entry): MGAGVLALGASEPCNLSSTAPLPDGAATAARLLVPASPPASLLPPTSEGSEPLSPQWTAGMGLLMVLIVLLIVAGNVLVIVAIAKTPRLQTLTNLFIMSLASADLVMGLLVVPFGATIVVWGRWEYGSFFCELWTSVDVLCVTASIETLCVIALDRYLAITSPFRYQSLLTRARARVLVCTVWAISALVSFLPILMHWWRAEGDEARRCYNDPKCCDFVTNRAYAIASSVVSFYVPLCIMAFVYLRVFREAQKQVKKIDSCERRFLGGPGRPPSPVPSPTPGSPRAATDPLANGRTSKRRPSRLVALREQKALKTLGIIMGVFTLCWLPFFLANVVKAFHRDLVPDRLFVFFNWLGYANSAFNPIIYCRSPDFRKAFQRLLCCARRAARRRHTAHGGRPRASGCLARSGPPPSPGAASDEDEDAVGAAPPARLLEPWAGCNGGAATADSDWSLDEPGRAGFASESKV

[4] = target: Beta-1 adrenergic receptor (Cavia porcellus) (UniProt B0FL73); test: Intrinsic activity at beta1 adrenoceptor in guinea pig atrium relative to isoproterenol; settings: Cardiac atrium
Beta-1 adrenergic receptor (Cavia porcellus), sequence (B0FL73 1-467): as the sequence (B0FL73 whole entry) above

[5] = target: Beta-1 adrenergic receptor (Cavia porcellus) (UniProt B0FL73); test: Competitive inhibition of beta1 adrenoceptor in guinea pig atrium assessed as inhibition of isoproterenol-induced response after 20 mins by Schild plot analysis; settings: Cardiac atrium
[6] = target: Beta-2 adrenergic receptor (Cavia porcellus) (UniProt Q8K4Z4); test: Partial agonist at beta2 adrenoceptor in guinea pig trachea
[7] = target: Beta-1 adrenergic receptor (Cavia porcellus) (UniProt B0FL73); test: Partial agonist activity at beta1 adrenoceptor in guinea pig atrium; settings: Cardiac atrium

SMILES: COc1cc(Br)ccc1C(O)CNC(C)C (stereo not given)
- Kb [1]: 13.5 nM
- Intrinsic activity [2]: 0.2
- Selectivity ratio (Cavia porcellus): 2
- Kb [3]: 5.75 nM
- Intrinsic activity [4]: 0.2
- inhibition [5]: Active

SMILES: CC(C)NCC(O)c1cccc(Br)c1 (stereo not given)
- Kb [1]: 1260 nM
- Kb [3]: 631 nM

SMILES: COc1ccc(Br)cc1C(O)CNC(C)C (stereo not given)
- Kb [1]: 933 nM
- Kb [3]: 1480 nM

SMILES: COc1ccc(C)cc1C(O)CNC(C)C (stereo not given)
- Kb [1]: 2510 nM
- Kb [3]: 2510 nM

SMILES: CC(C)NCC(O)c1ccc(Br)cc1 (stereo not given)
- Kb [1]: 200 nM
- Kb [3]: 158 nM

SMILES: Cc1cccc(C(O)CNC(C)C)c1 (stereo not given)
- Kb [1]: 2000 nM
- Kb [3]: 794 nM

SMILES: COc1ccccc1C(O)CNC(C)C (stereo not given)
- Kb [1]: 120 nM
- Intrinsic activity [2]: 0.5
- pD2 [6]: 6.8
- Kb [3]: 617 nM
- Intrinsic activity [4]: 0.5
- pD2 [7]: 6.3

SMILES: Cc1ccc(C(O)CNC(C)C)cc1 (stereo not given)
- Kb [1]: 316 nM
- Kb [3]: 126 nM

SMILES: COc1cc(C)ccc1C(O)CNC(C)C (stereo not given)
- Kb [1]: 398 nM
- Intrinsic activity [2]: 0.2
- Selectivity ratio (Cavia porcellus): 40
- Kb [3]: 10 nM
- Intrinsic activity [4]: 0.2
- inhibition [5]: Active
